Structures can show the parent of a compound that is named as a salt.
System: mice (stretching and twisting provoked by intraperitoneal injection of acetic acid)
Assay: Analgesic Activity: acetic acid-induced stretching test in mice (based on Koster et al)
Format: in vivo
Details: Mus musculus, fasted 24 hours, test product oral 30 minutes before i.p. acetic acid (60 mg/kg), stretchings counted during 15 minutes after injection, read-out: AD50 (dose which reduced by 50% the number of stretching as compared to the controls)
Procedure: The test was based on that of Koster et al [Fed. Proc., Vol. 18 (1959) p. 412] wherein the intraperitoneal injection of acetic acid provokes in mice repeated stretching and twisting which persists for more than 6 hours and an analgesic prevents or suppresses this syndrom which is considered to be the exteriorization of a diffuse abdominal pain. A solution of 0.6% acetic acid in water containing 10% of arabic gum is used and the dose which causes the syndrom under these conditions is 0.01 ml/g or 60 mg/kg of acetic acid. The test products were orally administered 30 minutes before the intraperitoneal injection of acetic acid and the mice were fasted for 24 hours before the test.
For each dose and for the controls required in each test, groups of 5 mice were used and the stretchings were observed and counted for each mouse and added for each group, during a period of 15 minutes right after the injection. The AD50 or dose which reduced by 50% the number of stretching as compared to the controls was determined.

| SMILES | ED50 [mg/kg] |
| --- | --- |
| O=C(OCCN1CCN(c2cccc(C(F)(F)F)c2)CC1)c1sccc1Nc1ccnc2c(C(F)(F)F)cccc12 [Example 1, 2-[4-(3-trifluoromethylphenyl)-1-piperazinyl]-ethyl 3-[8-trifluoromethyl-4-quinolylamino]-2-thiophene-carboxylate dihydrochloride] | 20 |
| O=C(OCCN1CCN(c2ccc(Cl)cc2)CC1)c1sccc1Nc1ccnc2c(C(F)(F)F)cccc12 [Example 2, 2-[4-(4-chlorophenyl)-1-piperazinyl]-ethyl 3-(8-trifluoromethyl-4-quinolylamino)-2-thiophene-carboxylate] | 15 |
| O=C(OCCN1CCN(c2cccc(C(F)(F)F)c2)CC1)c1sccc1Nc1ccnc2cc(Cl)ccc12 [Example 3, 2-[4-(3-trifluoromethylphenyl)-1-piperazinyl]-ethyl 3-(7-chloro-4-quinolylamino)-2-thiophene-carboxylate] | 20 |
